Results from patent US9017692B2, “Antimicrobial agent, bacterial strain, biosynthesis, and methods of use” (priority 2011, dated 2015).
In brackets after ≈: the same amount, converted by molar mass. Read-outs that look alike come from different tables or passages of the source.

Assays:
PMB-S, KPN.2461 = assay: MIC, CLSI broth microdilution, Gram-negative clinical isolates; assay type: cell-based, Klebsiella pneumoniae
Protocol: (§1) Plates were incubated at 35° C. for 24 h.
(§2) The activity of paenibacterin was also tested against clinical isolates of the following Gram-negative bacterial strains: four strains of the species Pseudomonas aeruginosa (PAE), three strains of the species Acinetobacter baumannii (ABA), two strains of the species Escherichia coli (ECO), and four strains of the species Klebsiella pneumoniae (KPN). Particularly, the strains of Gram-negative bacteria included polymyxin B-resistant (PMB-R) and polymyxin B-sensitive (PMB-S) strains of each above listed species. The MICs were determined using the above described CLSI broth microdilution method, in which the method was performed with both non-binding surface coated (NBS) and polystyrene (PS) 96-well plates (Tables 11 and 12, respectively). The MICs were generally lower in the NBS 96-well plates as compared to the PS 96-well plates.

KPN.674 = assay: as above; assay type: cell-based, Klebsiella pneumoniae; conditions: for MIC: Klebsiella pneumoniae, read-out: Minimum inhibitory concentration (MIC)
Protocol: as §1, §2

PMB-R, KPN.2463 = assay: as above; assay type: cell-based, Klebsiella pneumoniae
Protocol: as §1, §2

KPN.2317 = assay: as above; assay type: cell-based, Klebsiella pneumoniae; conditions: for MIC: Klebsiella pneumoniae, read-out: Minimum inhibitory concentration (MIC)
Protocol: as §1, §2

ECO.2276 = assay: as above; assay type: cell-based, Escherichia coli; conditions: for MIC: Escherichia coli, read-out: Minimum inhibitory concentration (MIC)
Protocol: as §1, §2

ATCC 25922 ECO.35 = assay: as above; assay type: cell-based, Escherichia coli; conditions: for MIC: Escherichia coli, read-out: Minimum inhibitory concentration (MIC)
Protocol: as §1, §2

ABA.1570 = assay: as above; assay type: cell-based, Acinetobacter baumannii; conditions: for MIC: Acinetobacter baumannii, read-out: Minimum inhibitory concentration (MIC)
Protocol: as §1, §2

ABA.2232 = assay: as above; assay type: cell-based, Acinetobacter baumannii; conditions: for MIC: Acinetobacter baumannii, read-out: Minimum inhibitory concentration (MIC)
Protocol: as §1, §2

ABA.2315 = assay: as above; assay type: cell-based, Acinetobacter baumannii
Protocol: as §1, §2

[1] = tested on: DS-VRE ATCC 700802 EFS.807; assay: microbe, parasite or virus in culture; conditions: Enterococcus faecalis, ATCC700802|VRE, read-out: Minimum inhibitory concentration (MIC)
Protocol: (§3) The activity of paenibacterin against several strains of Gram-positive and Gram-negative foodborne pathogens is summarized in Table 10. The data is reported as minimum inhibitory concentrations (MIC) as an average of three replicates for paenibacterin against the various listed bacterial strains. […] MICs were determined according to the CLSI broth microdilution method (see, Clinical and Laboratory Standards Institute (CLSI). 2009. Methods for dilution antimicrobial susceptibility tests for bacteria that grow aerobically; approved standard. […]. CLSI, Wayne, Pa.). Briefly, HPLC-purified paenibacterin was dissolved in methanol and diluted to appropriate concentration with cation-adjusted Mueller-Hinton II broth (Difco). Aliquots (25 μl) of serially-diluted paenibacterin was dispensed into wells of a 96-well plate; an equal amount of 1/10 diluted overnight bacterial culture was added to wells. Plates were incubated at 35° C. for 24 h. Cell growth after incubation was examined and determined using a microtiter plate reader at 600 nm. Concentration of paenibacterin is determined based on a molecular weight of 1604 Da.
(§4) The activity of paenibacterin was further tested against clinical isolates of the following Gram-positive bacteria: methicillin-sensitive Staphylococcus aureus (MSSA), methicillin-resistant S. aureus (MRSA), vancomycin-sensitive Enterococcus faecalis, vancomycin-resistant E. faecalis (VRE), Streptococcus pneumoniae, and laboratory derived daptomycin-resistant (DR) MSSA, MRSA, and VRE strains. The MICs were determined using the above described CLSI broth microdilution method, in which the method was performed with non-binding surface coated (NBS) 96-well plates.

WT ATCC 29212 EFS.43 = assay: microbe, parasite or virus in culture; conditions: Enterococcus faecalis, ATCC29212, read-out: Minimum inhibitory concentration (MIC)
Protocol: as §3, §4

MSSA ATCC 29213 SAU.42 = assay: microbe, parasite or virus in culture; conditions: Staphylococcus aureus, ATCC29213|MSSA, read-out: Minimum inhibitory concentration (MIC)
Protocol: as §3, §4

PAE.44 = assay: MIC, CLSI broth microdilution, Gram-negative clinical isolates; assay type: cell-based, Pseudomonas aeruginosa
Protocol: as §1, §2

PAE.2281 = assay: as above; assay type: cell-based, Pseudomonas aeruginosa; conditions: for MIC: Pseudomonas aeruginosa, read-out: Minimum inhibitory concentration (MIC)
Protocol: as §1, §2

PAE.2325 = assay: as above; assay type: cell-based, Pseudomonas aeruginosa; conditions: for MIC: Pseudomonas aeruginosa, read-out: Minimum inhibitory concentration (MIC)
Protocol: as §1, §2

PAE.999 = assay: as above; assay type: cell-based, Pseudomonas aeruginosa; conditions: for MIC: Pseudomonas aeruginosa, read-out: Minimum inhibitory concentration (MIC)
Protocol: as §1, §2

Compound: C[C@@H](O)[C@H]1C(=O)N2C(C(=O)O)=C(S[C@@H]3CN[C@H](C(=O)N(C)C)C3)[C@H](C)[C@H]12 [meropenem #413, meropenem]
- Minimum inhibitory concentration (MIC) (PMB-S, KPN.2461; KPN.2461, PS 96-well plates): >8 µg/mL
- MIC (PMB-S, KPN.2461; Klebsiella pneumoniae, KPN.2461 (PMB-S), NBS 96-well plates, read-out: Minimum inhibitory concentration (MIC)): > 8 µg/mL
- MIC (KPN.674; NBS 96-well plates): 0.0625 µg/mL (≈ 0.163 µM)
- MIC (KPN.674; PS 96-well plates): 0.03 µg/mL (≈ 0.0782 µM)
- Minimum inhibitory concentration (MIC) (PMB-R, KPN.2463; KPN.2463, PS 96-well plates): >8 µg/mL
- MIC (PMB-R, KPN.2463; Klebsiella pneumoniae, KPN.2463 (PMB-R), NBS 96-well plates, read-out: Minimum inhibitory concentration (MIC)): > 8 µg/mL
- MIC (KPN.2317; NBS 96-well plates): 0.0625 µg/mL (≈ 0.163 µM)
- MIC (KPN.2317; PS 96-well plates): 0.03 µg/mL (≈ 0.0782 µM)
- Minimum inhibitory concentration (MIC) (KPN.2317; NBS 96-well plates): 0.06 µg/mL (≈ 0.156 µM)
- MIC (ECO.2276; NBS 96-well plates): 0.03 to 0.06 µg/mL (≈ 0.0782 to 0.156 µM)
- MIC (ECO.2276; PS 96-well plates): 0.03 µg/mL (≈ 0.0782 µM)
- MIC (ATCC 25922 ECO.35; ATCC25922, ECO.35 (ATCC 25922), NBS 96-well plates): 0.03 µg/mL (≈ 0.0782 µM)
- MIC (ATCC 25922 ECO.35; ATCC25922, ECO.35, PS 96-well plates): 0.016 µg/mL (≈ 0.0417 µM)
- MIC (ABA.1570; NBS 96-well plates): 8 µg/mL (≈ 20.9 µM)
- MIC (ABA.1570; PS 96-well plates): > 8 µg/mL
- MIC (ABA.2232; NBS 96-well plates): 0.125 to 0.25 µg/mL (≈ 0.326 to 0.652 µM)
- MIC (ABA.2232; PS 96-well plates): 0.5 µg/mL (≈ 1.3 µM)
- MIC (ABA.2315; Acinetobacter baumannii, NBS 96-well plates, read-out: Minimum inhibitory concentration (MIC)): > 8 µg/mL
- Minimum inhibitory concentration (MIC) (ABA.2315; PS 96-well plates): >8 µg/mL
- MIC [1]: 4 µg/mL (≈ 10.4 µM)
- MIC (WT ATCC 29212 EFS.43): 2 µg/mL (≈ 5.22 µM)
- MIC (MSSA ATCC 29213 SAU.42): 0.125 µg/mL (≈ 0.326 µM)
- MIC (PAE.44; Pseudomonas aeruginosa, non-binding surface coated (NBS) 96-well plates, read-out: Minimum inhibitory concentration (MIC)): 1 µg/mL (≈ 2.61 µM)
- MIC (PAE.2281; NBS 96-well plates): 1 to 2 µg/mL (≈ 2.61 to 5.22 µM)
- MIC (PAE.2281; PS 96-well plates): 0.5 µg/mL (≈ 1.3 µM)
- MIC (PAE.2325; NBS 96-well plates): 2 to 4 µg/mL (≈ 5.22 to 10.4 µM)
- MIC (PAE.2325; PS 96-well plates): 2 µg/mL (≈ 5.22 µM)
- MIC (PAE.999; NBS 96-well plates): > 8 µg/mL
- MIC (PAE.999; PS 96-well plates): > 8 µg/mL

Compound: polymyxin B sulfate
- Minimum inhibitory concentration (MIC) (PMB-S, KPN.2461; KPN.2461 (PMB-S), NBS 96-well plates): 0.06 to 0.13 µg/mL
- Minimum inhibitory concentration (MIC) (PMB-S, KPN.2461; KPN.2461, PS 96-well plates): 2 µg/mL
- Minimum inhibitory concentration (MIC) (KPN.674; NBS 96-well plates): 0.125 µg/mL
- Minimum inhibitory concentration (MIC) (KPN.674; PS 96-well plates): 2 µg/mL
- Minimum inhibitory concentration (MIC) (PMB-R, KPN.2463; KPN.2463 (PMB-R), NBS 96-well plates): 2 to 8 µg/mL
- Minimum inhibitory concentration (MIC) (PMB-R, KPN.2463; KPN.2463, PS 96-well plates): 32 µg/mL
- Minimum inhibitory concentration (MIC) (KPN.2317; NBS 96-well plates): >64 µg/mL
- Minimum inhibitory concentration (MIC) (KPN.2317; PS 96-well plates): >64 µg/mL
- Minimum inhibitory concentration (MIC) (ECO.2276; NBS 96-well plates): 8 µg/mL
- Minimum inhibitory concentration (MIC) (ECO.2276; PS 96-well plates): 8 µg/mL
- Minimum inhibitory concentration (MIC) (ATCC 25922 ECO.35; ECO.35 (ATCC 25922), NBS 96-well plates): 0.06 µg/mL
- Minimum inhibitory concentration (MIC) (ATCC 25922 ECO.35; ECO.35, PS 96-well plates): 2 µg/mL
- Minimum inhibitory concentration (MIC) (ABA.1570; NBS 96-well plates): 0.0625 µg/mL
- Minimum inhibitory concentration (MIC) (ABA.1570; NBS 96-well plates, listed as polymyxin B): 0.06 µg/mL
- Minimum inhibitory concentration (MIC) (ABA.1570; PS 96-well plates): 2 µg/mL
- Minimum inhibitory concentration (MIC) (ABA.2232; NBS 96-well plates): 0.06 µg/mL
- Minimum inhibitory concentration (MIC) (ABA.2232; PS 96-well plates): 2 µg/mL
- Minimum inhibitory concentration (MIC) (ABA.2315; NBS 96-well plates): 8 µg/mL
- Minimum inhibitory concentration (MIC) (ABA.2315; PS 96-well plates): 64 µg/mL
- Minimum inhibitory concentration (MIC) (PAE.44; non-binding surface coated (NBS) 96-well plates): 0.125 µg/mL
- Minimum inhibitory concentration (MIC) (PAE.44; polystyrene (PS) 96-well plates): 2 µg/mL
- Minimum inhibitory concentration (MIC) (PAE.2281; NBS 96-well plates): 16 µg/mL
- Minimum inhibitory concentration (MIC) (PAE.2281; PS 96-well plates): 16 µg/mL
- Minimum inhibitory concentration (MIC) (PAE.2325; NBS 96-well plates): 0.25 µg/mL
- Minimum inhibitory concentration (MIC) (PAE.2325; PS 96-well plates): 2 µg/mL
- Minimum inhibitory concentration (MIC) (PAE.999; NBS 96-well plates): 0.25 µg/mL
- Minimum inhibitory concentration (MIC) (PAE.999; PS 96-well plates): 2 µg/mL
